Experiment [1] has as its system A549 human lung cancer cells. The experiment in a line: cell viability assay (MTT). The experiment is classed as cell-based. Particulars: 24 h; for viability at 1 µg/mL: read-out: Validity (%) for sample concentrations (µg/mL) 1; for viability at 10 µg/mL: read-out: Validity (%) for sample concentrations (µg/mL) 10; for viability at 31.25 µg/mL: read-out: Validity (%) for sample concentrations (µg/mL) 31.25; for viability at 62.5 µg/mL: 62.50 µg/mL, read-out: Validity (%) for sample concentrations (µg/mL) 62.50; for viability at 125 µg/mL: read-out: Validity (%) for sample concentrations (µg/mL) 125; for viability at 250 µg/mL: read-out: Validity (%) for sample concentrations (µg/mL) 250; for viability at 500 µg/mL: read-out: Validity (%) for sample concentrations (µg/mL) 500; for viability at 1000 µg/mL: read-out: Validity (%) for sample concentrations (µg/mL) 1000.

The test system of a further experiment is MDA-MB-231 cells. Kind of experiment: FACS analysis, Annexin V and PI staining. The experiment is classed as cell-based, human. Particulars: 24 h, 5g 500, 6c 105, 6d 170, 6k 130 µg/mL. The protocol:
To uncover the mechanism of cell death for the compounds 5h, 6c, 6d and 6k on WI-38, A549, and MDA-MB-231 cells; Annexin v and propedium Iodide (PI) were used. In brief, WI-38, A549, MDA-MB-231 cells were cultured in 10 tissue culture dish with initial number 4 × 10^5 cell/Ml in RPMI growth media. […] After 24 h incubations, cells were washed and trypsinized and suspended in 50 μL 1X Annexin v binding buffer followed by adding 5 μL FITC Annexin V and incubated for 15 min at room temperature then 5 μL of PI were added to each tube. Finally, 400 μL of 1X Annexin v binding buffer were added to each tube and analyzed using Becton-Dickinson FACS Caliber.
(In general: A flow cytometer gives signals particle by particle.)

In experiment [2] the test system is Klebsiella pneumoniae (K. pneumoniae), multidrug resistant clinical isolate. The experiment in a line: agar well diffusion assay. It is filed as cell-based. To be noted: 24 h, 500 µg/mL of tested compound. In short, it runs like this:
(§1)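 Multidrug-resistant clinical isolates swabbed on Mueller–Hinton agar at about 1–5 × 10^5 CFU/mL; 0.5 cm wells received 50 μL compound at 500 μg/mL in 1% DMSO. Incubation 24 h, 37 °C for bacteria and C. albicans, 25 °C for Aspergillus; inhibition zone diameter measured in mm.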
Background: In agar diffusion tests the substance spreads into inoculated agar from a disc or well.

In experiment [3] the test system is Staphylococcus aureus (S. aureus), multidrug resistant clinical isolate. The experiment in a line: agar well diffusion assay. Particulars: S. aureus, 500 µg/mL of tested compound, 24 h; for zone of inhibition at 500 µg/mL: Staphylococcus aureus. The experiment is classed as cell-based. In short, it runs like this: as §1
Experiment [4] relates to Pseudomonas aeruginosa (P. aeruginosa), multidrug resistant clinical isolate. Kind of experiment: agar well diffusion assay. The experiment is classed as cell-based. Particulars: 24 h, 500 µg/mL of tested compound. The essentials:
as §1

The next experiment concerns A549 cells. Kind of experiment: FACS analysis, Annexin V and PI staining. It is filed as cell-based, human. Particulars: 24 h, 5g 500, 6c 85, 6d 117, 6k 200 µg/mL. As to the method: (§2) To uncover the mechanism of cell death for the compounds 5h, 6c, 6d and 6k on WI-38, A549, and MDA-MB-231 cells; Annexin v and propedium Iodide (PI) were used. In brief, WI-38, A549, MDA-MB-231 cells were cultured in 10 tissue culture dish with initial number 4 × 10^5 cell/Ml in RPMI growth media. In the following day, cells were treated with 6c, 6d and 6k as the following; (0.0, 500 μg/mL form each drug for WI-38 treatment, 0.0, 85, 117 and 200 μg/mL; respectively, for […] and 0.0, 250 from each for MDA-MB-231 cells treatment). After 24 h incubations, cells were washed and trypsinized and suspended in 50 μL 1X Annexin v binding buffer followed by adding 5 μL FITC Annexin V and incubated for 15 min at room temperature then 5 μL of PI were added to each tube. Finally, 400 μL of 1X Annexin v binding buffer were added to each tube and analyzed using Becton-Dickinson FACS Caliber.

The subject of another experiment is WI-38 cells. Kind of experiment: FACS analysis, Annexin V and PI staining. Particulars: 24 h, 5g 1000 µg/mL, 6c, 6d, 6k 500 µg/mL. The experiment is classed as cell-based, human. The protocol:
as §2

≈ marks a conversion by molar mass, not a printed value.

As a reminder, the IC50 is the concentration that gives 50% inhibition. Read a high IC50 as weaker potency in that assay. By zone of inhibition is commonly meant the extent of the growth-free halo in a diffusion test. A high value points to wide suppression of growth. On to `O=C1C(Cl)C(c2ccc(Cl)cc2)N1c1nc(-c2cc(Cl)cc3c2-c2ccc(Cl)cc2C3)cs1` (stereo not drawn) [6c, 3-Chloro-4-(4-chlorophenyl)-1-(4-(2,7-dichloro-9H-fluoren-4-yl)thiazol-2-yl)azetidin-2-one], for which, in experiment [1], the viability at 1 µg/mL worked out at 92.4%, the viability at 10 µg/mL was 80.7%, the viability at 31.25 µg/mL stood at 59.8% and the viability at 62.5 µg/mL came out at 54.2%. Moreover, in experiment [1], the viability at 125 µg/mL worked out at 31.3%, the viability at 250 µg/mL was 25.1%, the viability at 500 µg/mL is 19.7% and the viability at 1000 µg/mL was found to be 17.7%. Half-maximal inhibition in experiment [1] (IC50) required 85 µg/mL (≈ 160 µM). In addition, in the experiment with MDA-MB-231 cells, the “apoptotic cell death (of total cell number)” value (“apoptotic cell death” for short) stood at 80.32% and the “necrotic cell death (of total cell number)” value (shortened to “necrotic cell death”) was 2.15%. In experiment [2], the zone of inhibition at 500 µg/mL worked out at 6 mm. This compound yielded a zone of inhibition at 500 µg/mL in experiment [3] of 7 mm. Also, in experiment [4], the zone of inhibition at 500 µg/mL turned out to be 10 mm. In addition, in the experiment on A549 cells, the “apoptotic cell death” value was 27.32% and the “necrotic cell death” value is listed as 2.1%. Moreover, in the experiment on WI-38 cells, the “apoptotic cell death” value is listed as 1.22% and the “necrotic cell death” value was 14.5%.
As to `O=C1C(Cl)C(c2ccc(Br)cc2)N1c1nc(-c2cc(Cl)cc3c2-c2ccc(Cl)cc2C3)cs1` (stereo not drawn) [6d, 4-(4-Bromophenyl)-3-chloro-1-(4-(2,7-dichloro-9H-fluoren-4-yl)thiazol-2-yl)azetidin-2-one], in experiment [1], the viability at 1 µg/mL stood at 97.9%, the viability at 10 µg/mL was found to be 92.6%, the viability at 31.25 µg/mL was 77.2% and the viability at 62.5 µg/mL came to 67.3%. In experiment [1], the viability at 125 µg/mL was found to be 49%, the viability at 250 µg/mL turned out to be 24.6%, the viability at 500 µg/mL was determined as 20.4% and the viability at 1000 µg/mL was found to be 19.4%. For the same compound, the midpoint of inhibition in experiment [1], the IC50, lay at 117 µg/mL (≈ 203 µM). For the same compound, the “apoptotic cell death” value in the experiment on MDA-MB-231 cells was found to be 55.355%. In addition, the zone of inhibition at 500 µg/mL in experiment [2] is 6 mm. In experiment [3], the “Mean zone of inhibition” value is “low activity” and the zone of inhibition at 500 µg/mL turned out to be 3 mm. This compound also displayed a zone of inhibition at 500 µg/mL in experiment [4] of 10 mm. Moreover, in the experiment with A549 cells, the “apoptotic cell death” value was 36.3% and the “necrotic cell death” value is 2%. For the same compound, in the experiment with WI-38 cells, the “apoptotic cell death” value is on record as 1.34% and the “necrotic cell death” value turned out to be 14.1%.
As for `O=C1C(Cl)C(c2cccs2)N1c1nc(-c2cc(Cl)cc3c2-c2ccc(Cl)cc2C3)cs1` (stereo not drawn) [6k, 3-Chloro-1-(4-(2,7-dichloro-9H-fluoren-4-yl)thiazol-2-yl)-4-(thiophen-2-yl)azetidin-2-one], in experiment [1], the viability at 1 µg/mL is 90.8%, the viability at 10 µg/mL was 80.8%, the viability at 31.25 µg/mL came out at 76% and the viability at 62.5 µg/mL stood at 70.6%. In experiment [1], the viability at 125 µg/mL is 55.4%, the viability at 250 µg/mL turned out to be 39.8%, the viability at 500 µg/mL was 28.7% and the viability at 1000 µg/mL was 23%. The same compound gave an IC50 in experiment [1] of 203 µg/mL (≈ 403 µM). Besides, in the experiment on MDA-MB-231 cells, the “apoptotic cell death” value is 67.25% and the “necrotic cell death” value came out at 4.56%. Moreover, in experiment [2], the zone of inhibition at 500 µg/mL was 3 mm. The same compound had a zone of inhibition at 500 µg/mL in experiment [3] of 7 mm. Moreover, the zone of inhibition at 500 µg/mL in experiment [4] was determined as 11 mm. Besides, in the experiment with A549 cells, the “apoptotic cell death” value is on record as 32.67% and the “necrotic cell death” value is 1.71%. Further, in the experiment with WI-38 cells, the “apoptotic cell death” value turned out to be 0.61% and the “necrotic cell death” value is 9.93%.
